Key:
Mamu-B*098 = test: X-ray crystal structure of the Mamu-B*098:C14nef5 complex; type: binding, rhesus macaque; conditions: crystal structure at 1.76 Å, Mamu-B*098 with Cys167 mutated to Ser, rhesus β2m; PDB 4ZFZ
Experimental: Recombinant proteins were prepared as described previously with some modifications. Briefly, DNA constructs encoding the ectodomain of Mamu-B*098 (from Gly1 to Pro276 with the unpaired Cys167 mutated to Ser and a Met-Ala added to the N terminus) and rhesus β2m (from Ile1 to Met99 with a Met-Ala added to the N terminus) were synthesized and cloned into pLM1. The expression plasmids were introduced into the E. coli Rosetta 2 (DE3) pLysS strain (Novagen, Madison, WI) and colonies were inoculated into a Terrific Broth supplemented with 50 μg ml^−1 ampicillin. Isopropyl-β-D-thiogalactoside was added to the culture at a final concentration of 0.5 mM when the OD600 value of the culture reached 0.5. After an additional 6-h culture, bacteria were harvested and lysed in a buffer containing 50 mM Tris-HCl pH 8.0, 1 mM EDTA, 0.1% NaN3, 10 mM dithiothreitol (DTT), 100 mM NaCl, 1% Triton X-100, 1% deoxycholate and 5 mM MgCl2, followed by a treatment with DNase I. After 6 h of stirring, the samples were centrifuged and the pellets were washed twice with a wash buffer containing 50 mM Tris-HCl pH 8.0, 1 mM EDTA, 0.1% NaN3, 1 mM DTT, 100 mM NaCl and 0.5% Triton X-100, and once with a rinse buffer containing 50 mM Tris-HCl pH 8.0, 1 mM EDTA, 0.1% NaN3 and 1 mM DTT. […]

Mamu-A*02 = test: Biolayer interferometry binding to β2m-linked Mamu-A*02; parameters: species or system rhesus macaque; conditions: Octet RED96; biotinylated β2m-linked Mamu-A*02 (refolded with YY9), negative control; lipopeptide 10 μM, 45 min; pH 7.5, 2% DMSO; 30 °C
Text: Single-chain MHC proteins in which β2m was linked via a Gly-Ser linker (GGGGSGGSGSGGGSS) to the ectodomain of either Mamu-B*098 or Mamu-A*02, followed by a biotinylation sequence peptide (LHHILDAQKMVWNHR), were also expressed in E. coli and were purified in a similar manner to the trimer complex of Mamu-B*098, β2m and C14nef5. The β2m-linked Mamu-B*098 protein was refolded without C14nef5, whereas the β2m-linked Mamu-A*02 protein was refolded in the presence of the YY9 peptide (YTSGPGIRY). These recombinant proteins (3 mg) were biotinylated by being incubated for 12 h at 20 °C with 2 μg of BirA enzyme (Sigma-Aldrich, St Louis, MO) in a biotinylation buffer containing 100 mM Tris-HCl pH 8.0, 5 mM MgCl2, 4.5 mM ATP and 4 mM D-biotin, and were purified by size-exclusion chromatography.
The binding of ligands to MHC class I molecules was analysed using the Octet RED96 system equipped with a streptavidin-conjugated biosensor (Pall ForteBio, Menlo Park, CA) according to the manufacturer's instructions. Biotinylated β2m-linked Mamu-B*098 and Mamu-A*02 proteins were immobilized on the sensor tip surface with a signal magnitude of ∼5.0 nm. […] After reference subtraction, binding signals were analysed using the BIAevaluation 3.1 software. […]

C14-Gly-Gly-Ala-Ile-Ser [C14nef5, N-myristoylated 5-mer peptide (C14-Gly-Gly-Ala-Ile-Ser; C14nef5) derived from the SIV Nef protein]
electron density in the Ag-binding groove of Mamu-B*098 (Mamu-B*098): Continuous electron density corresponding to C14nef5 was observed in the Ag-binding groove
physical interaction with immobilized Mamu-A*02 (biolayer interferometry) (Mamu-A*02): not for the control protein Mamu-A*02
